The conditions of series [1]: DTA; for Normal melting temperature: Crystal 1.
Series [2] in a line: Molar enthalpy of transition or fusion. Conditions: DSC.

The values below come from the NIST ThermoML archive (doi:10.1016/j.tca.2006.03.011).

SMILES strings stand for the structures. Numbers after ± are expanded uncertainties.

As for `CCCCCCCCCCCCCCCCCCCC` [eicosane], in series [1], the Normal melting temperature came to 38.5 ± 0.71 °C. The “Molar enthalpy of transition or fusion” value in series [2] (Crystal 1) was determined as 69 ± 1.8 kJ/mol.

As to `CCCCCCCCCCCCCCCCCCCCCCCCC` [pentacosane], the Normal melting temperature in series [1] stood at 52.77 ± 0.71 °C. Further, the Triple point temperature in series [1] (Crystal 2) is given as 312.9 ± 0.71 K; in series [1] (Crystal 3), 309 ± 0.71 K. Further, the results for the “Molar enthalpy of transition or fusion” value in series [2] (Crystal 1), in series [2] (Crystal 2) and in series [2] (Crystal 3) were 55.5 ± 1.5 kJ/mol, 1.07 ± 0.13 kJ/mol and 23.9 ± 0.7 kJ/mol, respectively.

With `CCCCCCCCCCCCCCCCCCCCCCCCCCCCCCCCCCCC` [hexatriacontane], the Normal melting temperature in series [1] came to 77.04 ± 0.71 °C. For the same compound, the Triple point temperature in series [1] (Crystal 2) is recorded as 348.28 ± 0.71 K; in series [1] (Crystal 3), 347.33 ± 0.71 K. Further, the “Molar enthalpy of transition or fusion” value in series [2] (Crystal 1) is 81.5 ± 2.1 kJ/mol; in series [2] (Crystal 2), 24.7 ± 0.72 kJ/mol; in series [2] (Crystal 3), 11.7 ± 0.39 kJ/mol.

On to `c1ccc2ccccc2c1` [naphthalene], for which, in series [1], the Normal melting temperature was determined as 81.54 ± 0.71 °C. The “Molar enthalpy of transition or fusion” value in series [2] (Crystal 1) is 19.6 ± 0.59 kJ/mol.
